Where two headings read alike, the source gives them in different places.
What was measured:
[1] = test system: HDAC (Mouse Liver Extract); assay: HDAC inhibition assay using Boc-Lys(Ac)-AMC substrate; format: biochemical; details: mouse liver enzyme
In short: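 Boc-Lys(Ac)-AMC substrate incubated with mouse liver extract as HDAC source, 5 min preincubation then 30 min at 37° C. Trypsin stop solution added (37° C., 15-30 min) to release AMC, read at ex 360/em 460 nm; buffer-only and substrate-only wells as blanks.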

[2] = test system: NCIH460 (lung) cells; assay: Anti-cancer screen (MTT), NCIH460; format: cell-based; details: Homo sapiens; for GI50: read-out: Cell growth inhibition NCIH460 (Lung) GI50; for LC50: read-out: Cell growth inhibition NCIH460 (Lung) LC50; for IC (TGI): read-out: Cell growth inhibition NCIH460 (Lung) TGI
In short: (§1)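 Five-point MTT cytotoxicity test with 48 h compound exposure (final 0.01–100 μM, triplicate) in DMEM with 10% FBS, using a T0 viability plate and SAHA as reference standard.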

[3] = test system: HCT 116 (colon) cells; assay: Anti-cancer screen (MTT), HCT 116; format: cell-based; details: Homo sapiens; for GI50: read-out: Cell growth inhibition HCT116 (Colon) GI50; for CC50: read-out: Cell growth inhibition HCT116 (Colon) LC50; for IC (TGI): read-out: Cell growth inhibition HCT116 (Colon) TGI
In short: as §1

[4] = test system: U251 (glioma) cells; assay: Anti-cancer screen (MTT), U251; format: cell-based; details: Homo sapiens; for GI50: read-out: Cell growth inhibition U251 (Glioma) GI50; for LC50 (concentration giving 50% net cell kill relative to the time-zero cell count): read-out: Cell growth inhibition U251 (Glioma) LC50; for IC (TGI): read-out: Cell growth inhibition U251 (Glioma) TGI
In short: as §1

[5] = test system: NCIH460, HCT116 and U251 cells; assay: Anti-cancer screen, mean GI50 over cell lines; format: cell-based; details: read-out: Cell growth inhibition Mean GI50
In short: as §1

[6] = NCI-H460, NCIH460, 48 hours, MTT

Compound | HDAC inhibition % (1 μM) [1] [%] | HDAC inhibition % (10 μM) [1] [%] | GI50 [2, 6] [µM] | LC50 [2, 6] [µM] | IC (TGI) [2, 6] [µM] | GI50 ([3]; HCT-116, HCT116, 48 hours, MTT) [µM] | CC50 ([3]; HCT-116, HCT116, 48 hours, MTT) [µM] | IC (TGI) ([3]; HCT-116, HCT116, 48 hours, MTT) [µM] | GI50 ([4]; U-251, U251, 48 hours, MTT) [µM] | LC50 (concentration giving 50% net cell kill relative to the time-zero cell count) ([4]; U-251, U251, 48 hours, MTT) [µM] | IC (TGI) ([4]; U-251, U251, 48 hours, MTT) [µM] | GI50 ([5]; mean over cell lines) [µM] | IC50 [1] [nM] | also measured
COc1ccc(/C=C(/C(=O)NCc2ccc(C(=O)Nc3ccccc3N)cc2)c2ccccc2)c(OC)c1 [Compound 39, N-(2-Aminophenyl)-4-((3-(2,4-dimethoxyphenyl)-2-phenylacrylamido)methyl)benzamide] | 9.1 | 18.9 | 3.2 | > 100 | > 100 | 0.7 | > 100 | 80 | 3.2 | > 100 | 100 | 2.4 | – | –
COC(=O)c1ccc(/C=C(/C(=O)NCc2ccc(C(=O)Nc3ccccc3N)cc2)c2ccccc2F)cc1 [Compound 34, N-(2-Aminophenyl)-4-((3-(4-carbmethoxyphenyl)-2-(2-fluorophenyl)acrylamido)methyl)benzamide] | 23.1 | 42.3 | 10.1 | > 100 | 90 | 1.8 | > 100 | 13 | 0.7 | 65 | 23 | 4.2 | – | –
CSc1ccc(/C=C(/C(=O)NCc2ccc(C(=O)Nc3ccccc3N)cc2)c2ccc(C(F)(F)F)cc2)cc1 [Compound 21, N-(2-Aminophenyl)-4-((3-(4-methylthiophenyl)-2-(4-trifluoromethylphenyl)acrylamido)methyl)benzamide] | 7.0 | 24.8 | 32 | 78 | 46 | 35 | 82 | 56 | 52 | 96 | 65 | 39.7 | – | –
CSc1ccc(/C=C(/C(=O)NCCCCCC(=O)NO)c2ccc(C)cc2)cc1 [Compound 96, 6-(2-(4-Methylphenyl)-3-(4-methylthiophenyl)acrylamido)-N-hydroxy hexanamide] | 84.1 | 98.5 | – | – | – | – | – | – | – | – | – | – | 10 | GI50 ([2]; NCI-H460, 48 h): 8 µM; LC50 ([2]; NCI-H460, 48 h): 60 µM; IC (TGI) ([2]; NCI-H460, 48 h): 21 µM; GI50 ([3]; HCT-116, 48 h): 6 µM; CC50 ([3]; HCT-116, 48 h): > 100 µM; IC (TGI) ([3]; HCT-116, 48 h): 27 µM; GI50 ([4]; U-251, 48 h): 8 µM; LC50 (concentration giving 50% net cell kill relative to the time-zero cell count) ([4]; U-251, 48 h): 60 µM; IC (TGI) ([4]; U-251, 48 h): 22 µM; GI50 [5]: 7.3 µM
Nc1ccccc1NC(=O)c1ccc(CNC(=O)/C(=C/c2ccc(F)cc2)c2ccccc2)cc1 [Compound 10, N-(2-Aminophenyl)-4-((3-(4-fluorophenyl)-2-(phenyl)acrylamido)methyl)benzamide] | 14.5 | 32.1 | 19.5 | 85 | 49 | 3.9 | 56 | 9 | 27 | 92 | 57 | 16.8 | – | –
CSc1ccc(/C=C(/C(=O)NCCCCCC(=O)NO)c2ccccc2Cl)cc1 [Compound 95, 6-(2-(2-Chlorophenyl)-3-(4-methylthiophenyl)acrylamido)-N-hydroxy hexanamide] | 60.8 | 92.0 | 6 | 72 | 40 | 3 | 66 | 14 | 0.1 | 64 | 11 | 3 | 10 | –

From US8476255B2, “Histone deacetylase inhibitors” (Orchid Chemicals & Pharmaceuticals Limited, priority 2007, dated 2013)
